Where a SMILES comes first, the peptide text is derived from it. The star is where a group is joined. Myristoyl = CCCCCCCCCCCCCC(=O)*
What was measured:
[1] = test system: CD44^hiCD24^lo CSCs in MDA-MB-231 cells; experiment: FACS analysis of CD44^hiCD24^lo cancer stem cells in MDA-MB-231 cells treated with P1 analogues; assay type: cell-based, human; details: 50 μM peptide, 48 hours; for CD44^hiCD24^lo CSCs (%) / COI, Live Single CD44^hiCD24^lo CSCs (Cell Count): n = 1; for Average Inhibition of CSCs (%) / CD44^hiCD24^lo CSCs (%) Repeat 1 / CD44^hiCD24^lo CSCs (%) Repeat 2 / CD44^hiCD24^lo CSCs (%) Repeat 3: n = 3
Method: Analogues of P1 (Table 6) were designed and synthesized in accordance with the procedure of Example 5. The ability of these analogues to inhibit cancer stem cells was determined using FACS analysis on MDA-MB-231 cells, which constitutively contain approximately 90% CD44^hiCD24^lo cancer stem cells, treated with the peptides.
(§1) Non-adherent cells were removed during the washing steps.

MDA-MB-231 cells = assay type: cell-based, human; details: 50 μM peptide, 48 hours, n = 1
Text: as §1
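Throughout, for COI, Live Single Cells (Cell Count): live means Hoechst-negative events among single cells.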

| SMILES | Inhibition of CSCs (%) Repeat 1 [1] | Inhibition of CSCs (%) Repeat 2 [1] | Inhibition of CSCs (%) Repeat 3 [1] | CD44^hiCD24^lo CSCs (%) [1] | COI, Live Single CD44^hiCD24^lo CSCs (Cell Count) [1] | Average Inhibition of CSCs (%) [1] | CD44^hiCD24^lo CSCs (%) Repeat 1 [1] | CD44^hiCD24^lo CSCs (%) Repeat 2 [1] | CD44^hiCD24^lo CSCs (%) Repeat 3 [1] | COI (Cell Count) (MDA-MB-231 cells) | COI, Live Single Cells (Cell Count) (MDA-MB-231 cells) | COI, Single (Cell Count) (MDA-MB-231 cells) | Total Cell Count (MDA-MB-231 cells) |
| --- | --- | --- | --- | --- | --- | --- | --- | --- | --- | --- | --- | --- | --- |
| CCCCCCCCCCCCCC(=O)N[C@H](C(=O)N[C@@H](Cc1ccccc1)C(=O)N[C@H](C(=O)N[C@@H](C)C(=O)N[C@@H](CCCNC(=N)N)C(=O)N[C@@H](CC(C)C)C(=O)N[C@@H](CCCNC(=N)N)C(=O)N[C@@H](CCCCN)C(=O)NCC(=O)N[C@@H](CCCNC(=N)N)C(=O)N[C@@H](CCSC)C(=O)N[C@@H](CCSC)C(=O)N[C@@H](CC(=O)O)C(=O)N[C@H](C(=O)N[C@@H](CCCCN)C(=O)N[C@@H](CCCCN)C(N)=O)C(C)C)[C@@H](C)CC)[C@@H](C)O [Peptide 2815305, Myristoyl-TFIARLRKGRMMDVKK-NH2] (Myristoyl-TFIARLRKGRMMDVKK-NH2) | 7.19% | 10.83% | 2.94% | 93.18% | 82 | 6.99% | 83.18% | 80.00% | 87.10% | 129 | 88 | 121 | 2870 |
| CCCCCCCCCCCCCC(=O)N[C@@H](CC(C)C)C(=O)N[C@H](C(=O)N[C@@H](Cc1ccccc1)C(=O)N[C@H](C(=O)N[C@@H](Cc1ccccc1)C(=O)N[C@@H](CCCNC(=N)N)C(=O)N[C@H](C(=O)N[C@@H](CCCNC(=N)N)C(=O)N[C@@H](CCCCN)C(=O)NCC(=O)N[C@@H](CCCNC(=N)N)C(=O)N[C@@H](CCSC)C(=O)N[C@@H](CCSC)C(=O)N[C@@H](CC(=O)O)C(=O)N[C@H](C(=O)N[C@@H](CCCCN)C(=O)N[C@@H](CCCCN)C(N)=O)C(C)C)C(C)C)[C@@H](C)CC)[C@@H](C)O [Peptide 2853820, Myristoyl-LTFIFRVRKGRMMDVKK-NH2] (Myristoyl-LTFIFRVRKGRMMDVKK-NH2) | 89.75% | 90.39% | 91.76% | 6.64% | 14 | 90.63% | 9.19% | 8.62% | 7.40% | 541 | 211 | 346 | 3098 |
| CCCCCCCCCCCCCC(=O)N[C@@H](CC(C)C)C(=O)N[C@H](C(=O)N[C@@H](Cc1ccccc1)C(=O)N[C@@H](CC(C)C)C(=O)N[C@@H](Cc1ccccc1)C(=O)N[C@@H](CCCNC(=N)N)C(=O)N[C@@H](CC(C)C)C(=O)N[C@@H](CCCNC(=N)N)C(=O)N[C@@H](CCCCN)C(=O)NCC(=O)N[C@@H](CCCNC(=N)N)C(=O)N[C@@H](CCSC)C(=O)N[C@@H](CCSC)C(=O)N[C@@H](CC(=O)O)C(=O)N[C@H](C(=O)N[C@@H](CCCCN)C(=O)N[C@@H](CCCCN)C(N)=O)C(C)C)[C@@H](C)O [Peptide 2853812, Myristoyl-LTFLFRLRKGRMMDVKK-NH2] (Myristoyl-LTFLFRLRKGRMMDVKK-NH2) | 80.95% | 86.31% | 86.89% | 16.67% | 14 | 84.72% | 17.07% | 12.28% | 11.76% | 108 | 84 | 87 | 3794 |
| CCCCCCCCCCCCCC(=O)N[C@@H](CC(C)C)C(=O)N[C@H](C(=O)N[C@@H](Cc1ccccc1)C(=O)N[C@H](C(=O)N[C@@H](Cc1ccccc1)C(=O)N[C@@H](CCCNC(=N)N)C(=O)N[C@@H](CC(C)C)C(=O)N[C@@H](CCCNC(=N)N)C(=O)N[C@@H](CCCCN)C(=O)NCC(=O)N[C@@H](CCCNC(=N)N)C(=O)N[C@@H](CCSC)C(=O)N[C@@H](CCSC)C(=O)N[C@@H](CC(=O)O)C(=O)N[C@H](C(=O)N[C@@H](CCCNC(=N)N)C(=O)N[C@@H](CCCCN)C(N)=O)C(C)C)[C@@H](C)CC)[C@@H](C)O [Peptide 2853840, Myristoyl-LTFIFRLRKGRMMDVRK-NH2] (Myristoyl-LTFIFRLRKGRMMDVRK-NH2) | 82.01% | 81.08% | 83.80% | 18.83% | 58 | 82.30% | 16.13% | 16.97% | 14.54% | 709 | 308 | 487 | 3715 |
| CCCCCCCCCCCCCC(=O)N[C@@H](CCCCN)C(=O)N[C@H](C(=O)N[C@@H](Cc1ccccc1)C(=O)N[C@H](C(=O)N[C@@H](Cc1ccccc1)C(=O)N[C@@H](CCCNC(=N)N)C(=O)N[C@@H](CC(C)C)C(=O)N[C@@H](CCCNC(=N)N)C(=O)N[C@@H](CCCCN)C(=O)NCC(=O)N[C@@H](CCCNC(=N)N)C(=O)N[C@@H](CCSC)C(=O)N[C@@H](CCSC)C(=O)N[C@@H](CC(=O)O)C(=O)N[C@H](C(=O)N[C@@H](CCCCN)C(=O)N[C@@H](CCCCN)C(N)=O)C(C)C)[C@@H](C)CC)[C@@H](C)O [Peptide 2853803, Myristoyl-KTFIFRLRKGRMMDVKK-NH2] (Myristoyl-KTFIFRLRKGRMMDVKK-NH2) | 27.90% | 27.33% | 38.43% | 60.36% | 402 | 31.22% | 64.62% | 65.20% | 55.25% | 741 | 666 | 702 | 1115 |
| CCCCCCCCCCCCCC(=O)N[C@H](C(=O)N[C@@H](Cc1ccccc1)C(=O)N[C@H](C(=O)N[C@@H](Cc1ccccc1)C(=O)N[C@@H](C)C(=O)N[C@@H](CC(C)C)C(=O)N[C@@H](CCCNC(=N)N)C(=O)N[C@@H](CCCCN)C(=O)NCC(=O)N[C@@H](CCCNC(=N)N)C(=O)N[C@@H](CCSC)C(=O)N[C@@H](CCSC)C(=O)N[C@@H](CC(=O)O)C(=O)N[C@H](C(=O)N[C@@H](CCCCN)C(=O)N[C@@H](CCCCN)C(N)=O)C(C)C)[C@@H](C)CC)[C@@H](C)O [Peptide 2815306, Myristoyl-TFIFALRKGRMMDVKK-NH2] (Myristoyl-TFIFALRKGRMMDVKK-NH2) | 67.33% | 69.17% | 70.79% | 27.73% | 66 | 69.09% | 29.28% | 27.66% | 26.21% | 323 | 238 | 280 | 9352 |
| CCCCCCCCCCCCCC(=O)N[C@@H](CC(C)C)C(=O)N[C@H](C(=O)N[C@@H](Cc1ccccc1)C(=O)N[C@H](C(=O)N[C@@H](Cc1ccccc1)C(=O)N[C@@H](CCCNC(=N)N)C(=O)N[C@@H](CC(C)C)C(=O)N[C@@H](CCCNC(=N)N)C(=O)N[C@@H](CCCCN)C(=O)NCC(=O)N[C@@H](CCCNC(=N)N)C(=O)N[C@@H](CCSC)C(=O)N[C@@H](CCSC)C(=O)N[C@@H](CC(=O)O)C(=O)N[C@H](C(=O)N[C@@H](CCCCN)C(=O)N[C@@H](CCC(=O)O)C(N)=O)C(C)C)[C@@H](C)CC)[C@@H](C)O [Peptide 2853845, Myristoyl-LTFIFRLRKGRMMDVKE-NH2] (Myristoyl-LTFIFRLRKGRMMDVKE-NH2) | 15.69% | 19.72% | 17.64% | 65.10% | 2612 | 17.69% | 75.56% | 72.02% | 73.91% | 4600 | 4012 | 4111 | 5598 |

— US20200339691A1, “PROTEINACEOUS MOLECULES AND USES THEREFOR” (priority 2018, published 2020)
